Data from the supplement of paper PMC10307832.

Key:
Assay in all cases: relative viability (nuclei count vs DMSO), 5 days (fraction); higher = more cells survive
Venetoclax + Bortezomib = compound: CC1(C)CCC(CN2CCN(c3ccc(C(=O)NS(=O)(=O)c4ccc(NCC5CCOCC5)c([N+](=O)[O-])c4)c(Oc4cnc5[nH]ccc5c4)c3)CC2)=C(c2ccc(Cl)cc2)C1 [Venetoclax] + CC(C)C[C@H](NC(=O)[C@H](Cc1ccccc1)NC(=O)c1cnccn1)B(O)O [Bortezomib] (partner 0.002 µM)
Summary of the method: (§1)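 Lung cancer cell lines in 1536-well plates were dosed by pin tool the day after seeding, either with one drug alone or with a fixed anchor-drug dose plus five library-drug doses (not always all listed) in √10 steps. After 5 days, cells were fixed and their nuclei stained in one step (final 0.05% Triton X-100, 1% formaldehyde, 1 ug/ml Hoechst), then counted on 4× images. Relative viability is the nuclei count in treated wells divided by that in vehicle wells. Values are medians of duplicate plates.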

Venetoclax + Vorinostat = compound: CC1(C)CCC(CN2CCN(c3ccc(C(=O)NS(=O)(=O)c4ccc(NCC5CCOCC5)c([N+](=O)[O-])c4)c(Oc4cnc5[nH]ccc5c4)c3)CC2)=C(c2ccc(Cl)cc2)C1 [Venetoclax] + O=C(CCCCCCC(=O)Nc1ccccc1)NO [Vorinostat] (partner 1 µM)
Summary of the method: as §1

Selumetinib + Phenformin = compound: Cn1cnc2c(F)c(Nc3ccc(Br)cc3Cl)c(C(=O)NOCCO)cc21 [Selumetinib] + N=C(N)NC(=N)NCCc1ccccc1 [Phenformin] (partner 250 µM)
Summary of the method: as §1

Selumetinib + AZD7762 = compound: Cn1cnc2c(F)c(Nc3ccc(Br)cc3Cl)c(C(=O)NOCCO)cc21 [Selumetinib] + NC(=O)Nc1cc(-c2cccc(F)c2)sc1C(=O)N[C@H]1CCCNC1 [AZD7762] (partner 0.2 µM)
Summary of the method: as §1

Row | Cell Line | relative viability (Venetoclax + Bortezomib; first compound 0.01 µM) | relative viability (Venetoclax + Bortezomib; first compound 0.03162 µM) | relative viability (Venetoclax + Bortezomib; first compound 0.1 µM) | relative viability (Venetoclax + Bortezomib; first compound 0.3162 µM) | relative viability (Venetoclax + Bortezomib; first compound 1 µM) | relative viability (Venetoclax + Vorinostat; first compound 0.01 µM) | relative viability (Venetoclax + Vorinostat; first compound 0.03162 µM) | relative viability (Venetoclax + Vorinostat; first compound 0.1 µM) | relative viability (Venetoclax + Vorinostat; first compound 0.3162 µM) | relative viability (Venetoclax + Vorinostat; first compound 1 µM) | relative viability (Selumetinib + Phenformin; first compound 0.02 µM) | relative viability (Selumetinib + Phenformin; first compound 0.06325 µM) | relative viability (Selumetinib + Phenformin; first compound 0.2 µM) | relative viability (Selumetinib + Phenformin; first compound 0.6325 µM) | relative viability (Selumetinib + AZD7762; first compound 0.02 µM) | relative viability (Selumetinib + AZD7762; first compound 0.06325 µM) | relative viability (Selumetinib + AZD7762; first compound 0.2 µM) | relative viability (Selumetinib + AZD7762; first compound 0.6325 µM)
1 | EMC-BAC-2 | 1.02 | 1.05 | 0.958 | 1.02 | 1.04 | 0.465 | 0.783 | 0.352 | 0.672 | 0.417 | 0.559 | 0.583 | 0.552 | 0.537 | 1.16 | 1.11 | 0.913 | 1.08
2 | NCI-H322M | 1.37 | 1.18 | 1.27 | 1.2 | 1.2 | 0.982 | 1 | 0.818 | 0.996 | 0.903 | 0.668 | 0.561 | 0.57 | 0.574 | 0.453 | 0.443 | 0.45 | 0.527
3 | H3255 | 0.784 | 0.855 | 0.626 | 0.825 | 0.644 | 0.782 | 0.899 | 0.897 | 0.777 | 0.733 | 0.385 | 0.367 | 0.332 | 0.318 | 0.827 | 0.945 | 0.821 | 0.935
4 | NCI-H1993 | 1.05 | 1.19 | 0.988 | 1.04 | 1.02 | 0.747 | 1 | 0.714 | 0.728 | 0.615 | 0.506 | 0.569 | 0.466 | 0.551 | 0.842 | 0.733 | 0.634 | 0.666
5 | NCI-H650 | 0.671 | 0.792 | – | 0.873 | 0.817 | 0.42 | 0.413 | 0.471 | 0.462 | 0.391 | 0.521 | 0.407 | 0.551 | 0.54 | 1.37 | 1.14 | 1.06 | 1.15
6 | NCI-H460 | 1.06 | 1.06 | 1.06 | 1.03 | 0.904 | 0.602 | 0.684 | 0.653 | 0.739 | 0.6 | 0.479 | 0.397 | 0.309 | 0.176 | 0.695 | 0.663 | 0.598 | 0.662
7 | NCI-H1437 | 0.451 | 0.572 | 0.475 | 0.42 | 0.492 | 0.8 | 0.888 | 0.808 | 0.709 | 0.788 | 0.269 | 0.232 | 0.216 | 0.243 | 1.03 | 0.941 | 0.834 | 0.603
8 | NCI-H2347 | 0.927 | 1.5 | 1.14 | 1.03 | 1.02 | 0.574 | 0.753 | 0.461 | 0.593 | 0.591 | 0.401 | 0.256 | 0.187 | 0.283 | 0.678 | 0.568 | 0.454 | 0.343
9 | LC-2-ad | 0.834 | 1.02 | 0.968 | 0.907 | 0.94 | 0.721 | 0.729 | 0.641 | 0.69 | 0.686 | 0.557 | 0.544 | 0.532 | 0.575 | 0.687 | 0.633 | 0.572 | 0.477
